SMILES strings stand for the structures.

The test in a line: Inhibition of rat human chimera TRPV1 channel expressed in CHO cells. Format: cell-based.
Broadly, the IC50 is the concentration that inhibits the measured activity by half. For the compound `CC(C)(C)c1ccc(/C=C/C(=O)Nc2ccc3ccc(=O)[nH]c3c2)cc1`, the IC50 was 0.004 µM.
In general, pIC50 refers to the IC50 on a negative log10 scale, so that one unit is a factor of ten. Take `O=C(/C=C/c1ccc([N+](=O)[O-])cc1)Nc1ccc2c(c1)OCCO2`: the IC50 came to 0.583 µM and the pIC50 is reported as 6.23.
In the same order, the values of `CCC(C)/C(=C\c1ccc(C(C)(C)C)cc1)C(=O)Nc1ccc2c(c1)OCCO2` (stereo not drawn) are 0.545 µM and 6.26.
In the case of `CC(C)(C)c1ccc(/C=C\C(=O)Nc2ccc3c(c2)OCCO3)cc1`, the IC50 worked out at 1.9 µM and the pIC50 worked out at 5.72.
In the same order, the values of `O=C(/C=C/c1cccc2ccccc12)Nc1ccc2c(c1)OCCO2` are 0.643 µM and 6.19.
In the same order, the values of `O=C(/C=C/c1ccc(Cl)cc1)Nc1ccc2c(c1)OCCO2` are 0.216 µM and 6.67.
The corresponding values for `O=C(/C=C/c1ccc(F)cc1F)Nc1ccc2c(c1)OCCO2` are 3.6 µM and 5.44.
`O=C(/C=C/c1ccc(O)cc1)Nc1ccc2c(c1)OCCO2`: the IC50 is above 40 µM and the pIC50 was 4.4.
In the same order, the values of `CC(C)(C)c1ccc(/C=C/C(=O)Nc2ccc3c(c2)OCCO3)cc1` (stereo in doubt; 91) are 0.136 µM and 6.87.
Compound `CC(C)c1ccc(/C=C/C(=O)Nc2ccc3c(c2)OCCO3)cc1` gave a half-inhibitory concentration (IC50) of 0.098 µM and a pIC50 of 7.01.
The compound `COc1ccc(NC(=O)/C=C/c2ccc(C(C)(C)C)cc2)cc1` had an IC50 of 0.166 µM and a pIC50 of 6.78.
The corresponding values for `CC(=O)Nc1ccc(/C=C/C(=O)Nc2ccc3c(c2)OCCO3)cc1` are above 40 µM and 4.4.
In the same order, the values of `O=C(/C=C/c1ccc(I)cc1)Nc1ccc2c(c1)OCCO2` are 0.509 µM and 6.29.
`CC(C)(C)c1ccc(/C(=C/C(=O)Nc2ccc3c(c2)OCCO3)c2ccncc2)cc1`: the midpoint of inhibition, the IC50, lay at 0.119 µM and the pIC50 is on record as 6.92.
`COC[C@@H]1COc2cc(NC(=O)/C=C/c3ccc(C(C)(C)C)cc3)ccc2O1` gave an IC50 of 1.02 µM and a pIC50 of 5.99.
In the same order, the values of `COc1cc(/C=C/C(=O)Nc2ccc3c(c2)OCCO3)cc(OC)c1OC` are above 40 µM and 4.4.
The corresponding values for `O=C(/C=C/c1ccc(C(F)(F)F)nc1N1CCOCC1)Nc1ccc2cccnc2c1` are 0.002 µM and 8.78.
`CN(C)C[C@@H]1COc2cc(NC(=O)/C=C/c3ccc(C(C)(C)C)cc3)ccc2O1` returned an IC50 of 0.665 µM and a pIC50 of 6.18.
In the same order, the values of `O=C(/C=C/c1ccccc1)Nc1ccc2c(c1)OCCO2` are 5.1 µM and 5.29.
With `CC(C)Cc1ccc(/C=C/C(=O)Nc2ccc3c(c2)OCCO3)cc1`, half-maximal inhibition (IC50) was put at 1.01 µM and the pIC50 was 5.99.
The corresponding values for `O=C(/C=C/c1ccc2ccccc2c1)Nc1ccc2c(c1)OCCO2` are 0.74 µM and 6.13.
The compound `COc1ccccc1/C(=C/C(=O)Nc1ccc2c(c1)OCCO2)c1ccc(C(C)(C)C)cc1` came in with an IC50 of 0.153 µM and a negative logarithm of the IC50 (pIC50) of 6.82.
The corresponding values for `CC(C)(C)c1ccc(/C(=C/C(=O)Nc2ccc3c(c2)OCCO3)Cc2ccccc2)cc1` are 0.021 µM and 7.69.
With `CC(C)(C)c1ccc(/C=C/C(=O)Nc2ccc3c(c2)OCCO3)nc1`, the IC50 is 1.06 µM and the pIC50 turned out to be 5.97.
In the same order, the values of `COc1cccc(/C(=C/C(=O)Nc2ccc3c(c2)OCCO3)c2ccc(C(C)(C)C)cc2)c1` are 0.155 µM and 6.81.
The corresponding values for `O=C(/C=C/c1ccc(Br)cc1)Nc1ccc2c(c1)OCCO2` are 0.339 µM and 6.47.
In the same order, the values of `CC(C)(C)c1ccc(/C=C(/C(=O)Nc2ccc3c(c2)OCCO3)C2CCCC2)cc1` are 15.4 µM and 4.81.
The compound `CC(C)(C)c1ccc(/C=C/C(=O)Nc2ccc3c(c2)O[C@@H](CO)CO3)cc1` registered an IC50 of 0.254 µM and a negative-log IC50 (pIC50) of 6.59.
In the same order, the values of `CC(C)(C)c1ccc(/C=C/CNc2ccc3c(c2)OCCO3)cc1` are above 40 µM and 4.4.
The corresponding values for `Cc1cccc(/C(=C/C(=O)Nc2ccc3c(c2)OCCO3)c2ccc(C(C)(C)C)cc2)c1` are 0.059 µM and 7.23.
On to `CC(C)(C)c1ccc(/C(=C/C(=O)Nc2ccc3c(c2)OCCO3)c2ccc(C(F)(F)F)cc2)cc1`, for which the IC50 was determined as 0.047 µM and the pIC50 is recorded as 7.33.
For `Cc1ccc(C(=CC(=O)Nc2ccc3c(c2)OCCO3)c2ccc(C)cc2)cc1`, the IC50 came to 0.247 µM and the pIC50 is 6.61.
`CC(C)(C)c1ccc(/C=C/C(=O)Nc2ccc3c(c2)OCCO3)c(C2CCCC2)c1` displayed an IC50 of 0.006 µM and a pIC50 of 8.21.
In the same order, the values of `O=C(/C=C/c1ccc(C(F)(F)F)cc1)Nc1ccc2c(c1)OCCO2` are 0.12 µM and 6.92.
Compound `CC(C)(C)c1ccc(/C=C/C(=O)Nc2ccc3c(c2)NCCO3)cc1` yielded an IC50 of 0.173 µM.
For `C/C(=C\c1ccc(C(C)(C)C)cc1)C(=O)Nc1ccc2c(c1)OCCO2`, 0.164 µM corresponded to half-maximal inhibition (IC50) and the pIC50 stood at 6.78.
In the same order, the values of `O=C(/C=C/c1ccc(C(F)(F)F)c(F)c1)Nc1ccc2c(c1)OCCO2` are 0.129 µM and 6.89.
In the same order, the values of `O=C(/C=C/c1cccc(OC(F)(F)F)c1)Nc1ccc2c(c1)OCCO2` are 1.62 µM and 6.79.
In the same order, the values of `COc1ccc(NC(=O)/C=C/c2ccc(C(C)(C)C)cc2)cc1OC` are 0.23 µM and 6.64.
`Cc1nc(C(F)(F)F)ccc1/C=C/C(=O)Nc1ccc2c(c1)OCCO2` showed an IC50 of 1.11 µM and a pIC50 of 5.95.
As for `Cc1ccc(/C=C/C(=O)Nc2ccc3c(c2)OCCO3)cc1`, 0.293 µM corresponded to half-maximal inhibition (IC50) and the pIC50 is 6.53.
In the same order, the values of `CC(C)(C)c1ccc(/C=C/C(=O)Oc2ccc3c(c2)OCCO3)cc1` are 0.868 µM and 6.06.
The corresponding values for `CCC(C)(C)c1ccc(/C=C/C(=O)Nc2ccc3c(c2)OCCO3)cc1` are 0.048 µM and 7.32.
For `O=C(/C=C/c1ccc(C2CC2)cc1)Nc1ccc2c(c1)OCCO2`, the midpoint of inhibition, the IC50, lay at 0.419 µM and the pIC50 is recorded as 6.38.
For the compound `CN(C)c1ccc(/C=C/C(=O)Nc2ccc3c(c2)OCCO3)cc1`, inhibition was half-maximal at 1.32 µM (IC50) and the pIC50 amounted to 5.88.
In the same order, the values of `O=C(/C=C/c1ccc(F)cc1)Nc1ccc2c(c1)OCCO2` are 1.47 µM and 5.83.
The corresponding values for `CCOC(=O)CC/C(=C\C(=O)Nc1ccc2c(c1)OCCO2)c1ccc(C(C)(C)C)cc1` are 0.056 µM and 7.25.
Turning to `CC(C)(C)c1ccc(/C=C/C(=O)Nc2ccc3c(c2)OC[C@H](CO)O3)cc1`, the IC50 was determined as 0.024 µM and the pIC50 turned out to be 7.62.
In the same order, the values of `CC(C)(C)c1ccc(/C(=C/C(=O)Nc2ccc3c(c2)OCCO3)c2cccnc2)cc1` are 0.144 µM and 6.84.
In the same order, the values of `CC(C)C/C(=C\C(=O)Nc1ccc2c(c1)OCCO2)c1ccc(C(C)(C)C)cc1` are 0.041 µM and 7.38.
For the compound `COc1ccc(/C(=C/C(=O)Nc2ccc3c(c2)OCCO3)c2ccc(C(C)(C)C)cc2)cc1`, the concentration for half-maximal inhibition (IC50) was 0.046 µM and the pIC50 is on record as 7.34.
Turning to `CC(C)(C)c1ccc(/C=C/C(=O)Nc2ccc3cccnc3c2)cc1`, it took 0.003 µM to reach half-maximal inhibition (IC50).
For the compound `CC(C)(C)c1ccc(/C(I)=C/C(=O)Nc2ccc3c(c2)OCCO3)cc1`, the IC50 amounted to 0.343 µM and the pIC50 worked out at 6.46.
The compound `CC(C)(C)c1ccc(/C=C/C(=O)Nc2ccc3c(c2)CCCC3)cc1` gave an IC50 of 0.102 µM.
Turning to `C/C(=C\C(=O)Nc1ccc2c(c1)OCCO2)c1ccc(C(C)(C)C)cc1`, the IC50 turned out to be 0.082 µM and the negative logarithm of the IC50 (pIC50) worked out at 7.09.
In the same order, the values of `CCC/C(=C\C(=O)Nc1ccc2c(c1)OCCO2)c1ccc(C(C)(C)C)cc1` are 0.12 µM and 6.92.
In the case of `CC(C)(C)c1ccc(/C=C/C(=O)Nc2ccc3c(c2)OCCO3)cn1`, the IC50 came out at 0.183 µM and the negative logarithm of the IC50 (pIC50) worked out at 6.74.
The corresponding values for `CC/C(=C\c1ccc(C(C)(C)C)cc1)C(=O)Nc1ccc2c(c1)OCCO2` are 0.501 µM and 6.3.
Take `CC(C)(C)c1ccc(/C=C/C(=O)Nc2ccc3c(c2)OC[C@@H](CN)O3)cc1`: the midpoint of inhibition, the IC50, lay at 1.27 µM and the pIC50 was 5.9.
The corresponding values for `CC(C)(C)c1ccc(CCC(=O)Nc2ccc3c(c2)OCCO3)cc1` are 0.226 µM and 6.65.
The corresponding values for `CC(=O)Oc1ccc(/C=C/C(=O)Nc2ccc3c(c2)OCCO3)cc1` are 2.33 µM and 5.63.
The compound `CC(C)(C)c1ccc(/C=C/C(=O)Nc2ccc3c(c2)OCCN3)cc1` displayed a half-inhibitory concentration (IC50) of 0.026 µM.
As to `O=C(/C=C/c1ccc(Cl)cc1)Nc1cccc(Cl)c1`, the IC50 is 0.993 µM and the negative logarithm of the IC50 (pIC50) turned out to be 6.
Consider `CC(C)(C)c1ccc(/C=C/C(=O)Nc2ccc3c(c2)NCCC3)cc1`, for which inhibition was half-maximal at 0.055 µM (IC50).
Consider `CC(C)(C)c1ccc(/C=C/C(=O)Nc2ccc3c(c2)OCCO3)cc1` (stereo in doubt; 1), for which the IC50 stood at 0.023 µM and the pIC50 came to 7.59.
In the same order, the values of `CC(C)(C)c1ccc(/C=C/C(=O)Nc2ccc3c(c2)OCCO3)c(Br)c1` are 0.157 µM and 6.8.
In the same order, the values of `CCc1ccc(/C=C/C(=O)Nc2ccc3c(c2)OCCO3)cc1` are 0.247 µM and 6.61.
In the case of `CC(C)(C)c1ccc(/C=C/C(=O)Nc2ccc3c(c2)OCC(=O)N3)cc1`, half-maximal inhibition (IC50) required 0.391 µM.
`CC(C)(C)c1ccc(C(=O)CC(=O)Nc2ccc3c(c2)OCCO3)cc1` displayed an IC50 of 0.582 µM and a pIC50 of 6.23.
In the same order, the values of `O=C(/C=C/c1ccc(C(F)(F)F)nc1)Nc1ccc2c(c1)OCCO2` are 1.07 µM and 5.97.

The record behind these values is ChEMBL document CHEMBL1138244, “Three-dimensional quantitative structure-activity relationships and activity predictions of human TRPV1 channel antagonists: comparative molecular field analysis and comparative molecular similarity index analysis of cinnamides” (J Med Chem, 2007).
